Test results taken from the CheMixHub viscosity set.
± gives the uncertainty stated by the source.

Assay: xn = mol fraction of the nth substance listed

## FB(F)F + COc1ccccc1
293.15 K, 101 kPa, x1 = 0.00791
  viscosity: 1.08 ± 0.04 mPa·s
293.15 K, 101 kPa, x1 = 0.08794
  viscosity: 1.18 ± 0.05 mPa·s
293.15 K, 101 kPa, x1 = 0.1573
  viscosity: 1.27 ± 0.05 mPa·s
293.15 K, 101 kPa, x1 = 0.2443
  viscosity: 1.62 ± 0.07 mPa·s
293.15 K, 101 kPa, x1 = 0.3211
  viscosity: 2.23 ± 0.09 mPa·s
293.15 K, 101 kPa, x1 = 0.3634
  viscosity: 2.66 ± 0.11 mPa·s
293.15 K, 101 kPa, x1 = 0.3926
  viscosity: 3.04 ± 0.12 mPa·s
293.15 K, 101 kPa, x1 = 0.419
  viscosity: 3.46 ± 0.14 mPa·s
293.15 K, 101 kPa, x1 = 0.4457
  viscosity: 3.95 ± 0.16 mPa·s
293.15 K, 101 kPa, x1 = 0.4544
  viscosity: 4.19 ± 0.17 mPa·s
293.15 K, 101 kPa, x1 = 0.4895
  viscosity: 4.98 ± 0.2 mPa·s
298.15 K, 101 kPa, x1 = 0.00791
  viscosity: 1 ± 0.04 mPa·s
298.15 K, 101 kPa, x1 = 0.08794
  viscosity: 1.08 ± 0.04 mPa·s
298.15 K, 101 kPa, x1 = 0.1573
  viscosity: 1.16 ± 0.05 mPa·s
298.15 K, 101 kPa, x1 = 0.2443
  viscosity: 1.46 ± 0.06 mPa·s
298.15 K, 101 kPa, x1 = 0.3211
  viscosity: 2.02 ± 0.08 mPa·s
298.15 K, 101 kPa, x1 = 0.3634
  viscosity: 2.39 ± 0.1 mPa·s
298.15 K, 101 kPa, x1 = 0.3926
  viscosity: 2.69 ± 0.11 mPa·s
298.15 K, 101 kPa, x1 = 0.419
  viscosity: 3.04 ± 0.12 mPa·s
298.15 K, 101 kPa, x1 = 0.4457
  viscosity: 3.45 ± 0.14 mPa·s
298.15 K, 101 kPa, x1 = 0.4544
  viscosity: 3.62 ± 0.15 mPa·s
298.15 K, 101 kPa, x1 = 0.4895
  viscosity: 4.31 ± 0.17 mPa·s
303.15 K, 101 kPa, x1 = 0.00791
  viscosity: 0.93 ± 0.04 mPa·s
303.15 K, 101 kPa, x1 = 0.08794
  viscosity: 0.99 ± 0.04 mPa·s
303.15 K, 101 kPa, x1 = 0.1573
  viscosity: 1.06 ± 0.04 mPa·s
303.15 K, 101 kPa, x1 = 0.2443
  viscosity: 1.35 ± 0.05 mPa·s
303.15 K, 101 kPa, x1 = 0.3211
  viscosity: 1.81 ± 0.07 mPa·s
303.15 K, 101 kPa, x1 = 0.3634
  viscosity: 2.13 ± 0.09 mPa·s
303.15 K, 101 kPa, x1 = 0.3926
  viscosity: 2.4 ± 0.1 mPa·s
303.15 K, 101 kPa, x1 = 0.419
  viscosity: 2.67 ± 0.11 mPa·s
303.15 K, 101 kPa, x1 = 0.4457
  viscosity: 3.04 ± 0.12 mPa·s
303.15 K, 101 kPa, x1 = 0.4544
  viscosity: 3.15 ± 0.13 mPa·s
303.15 K, 101 kPa, x1 = 0.4895
  viscosity: 3.73 ± 0.15 mPa·s

## C1=C[C@H]2[C@@H](C1)[C@H]1C=C[C@@H]2C1 + CCCCCO
293.15 K, 101.2 kPa, x1 = 0.1058
  viscosity: 3.719 ± 0.18 mPa·s
293.15 K, 101.2 kPa, x1 = 0.1953
  viscosity: 3.558 ± 0.16 mPa·s
293.15 K, 101.2 kPa, x1 = 0.3
  viscosity: 3.422 ± 0.16 mPa·s
293.15 K, 101.2 kPa, x1 = 0.4005
  viscosity: 3.307 ± 0.15 mPa·s
293.15 K, 101.2 kPa, x1 = 0.498
  viscosity: 3.279 ± 0.15 mPa·s
293.15 K, 101.2 kPa, x1 = 0.5999
  viscosity: 3.283 ± 0.16 mPa·s
293.15 K, 101.2 kPa, x1 = 0.7018
  viscosity: 3.368 ± 0.16 mPa·s
293.15 K, 101.2 kPa, x1 = 0.8009
  viscosity: 3.522 ± 0.18 mPa·s
293.15 K, 101.2 kPa, x1 = 0.8999
  viscosity: 3.876 ± 0.22 mPa·s
303.15 K, 101.2 kPa, x1 = 0.1058
  viscosity: 2.86 ± 0.13 mPa·s
303.15 K, 101.2 kPa, x1 = 0.1953
  viscosity: 2.734 ± 0.13 mPa·s
303.15 K, 101.2 kPa, x1 = 0.3
  viscosity: 2.63 ± 0.12 mPa·s
303.15 K, 101.2 kPa, x1 = 0.4005
  viscosity: 2.569 ± 0.12 mPa·s
303.15 K, 101.2 kPa, x1 = 0.498
  viscosity: 2.547 ± 0.12 mPa·s
303.15 K, 101.2 kPa, x1 = 0.5999
  viscosity: 2.575 ± 0.12 mPa·s
303.15 K, 101.2 kPa, x1 = 0.7018
  viscosity: 2.648 ± 0.13 mPa·s
303.15 K, 101.2 kPa, x1 = 0.8009
  viscosity: 2.784 ± 0.14 mPa·s
303.15 K, 101.2 kPa, x1 = 0.8999
  viscosity: 3.037 ± 0.17 mPa·s
313.15 K, 101.2 kPa, x1 = 0.1058
  viscosity: 2.201 ± 0.1 mPa·s
313.15 K, 101.2 kPa, x1 = 0.1953
  viscosity: 2.126 ± 0.097 mPa·s
313.15 K, 101.2 kPa, x1 = 0.3
  viscosity: 2.062 ± 0.095 mPa·s
313.15 K, 101.2 kPa, x1 = 0.4005
  viscosity: 2.032 ± 0.094 mPa·s
313.15 K, 101.2 kPa, x1 = 0.498
  viscosity: 2.035 ± 0.095 mPa·s
313.15 K, 101.2 kPa, x1 = 0.5999
  viscosity: 2.075 ± 0.099 mPa·s
313.15 K, 101.2 kPa, x1 = 0.7018
  viscosity: 2.14 ± 0.11 mPa·s
313.15 K, 101.2 kPa, x1 = 0.8009
  viscosity: 2.259 ± 0.12 mPa·s
313.15 K, 101.2 kPa, x1 = 0.8999
  viscosity: 2.466 ± 0.14 mPa·s
